According to patent US11311613B2, “Development of agonist epitopes of the human papillomavirus” (priority 2016, dated 2022):

Columns and labels:
CTL (T cells) = assay: IFN-γ production by CTL stimulated by autologous B cells pulsed with corresponding peptide; assay type: cell-based, human
Source text: Autologous B cells were pulsed with each native and agonist E6 peptides to stimulate production of interferon by T cells.
Autologous B cells were pulsed with each native and agonist E7 peptides to stimulate production of interferon by T cells.

[1] = system: HPV-specific T cell lines; assay: IFN-γ production by HPV-specific T cell lines stimulated with Ad5-infected human dendritic cells; assay type: cell-based
Method: Human DC (6 day culture in IL-4 and GM-CSF) were infected with Ad5 [E1,E2b]-HPV vector and Ad5 [E1,E2b]-Null at 1×10^5/well (24-well plate) in 0.5 ml of AIM-V. Ad5 vectors were used at 20,000 MOI for 1 hour and then 1.5 ml of AIM-V were added to each well. Infected DCs were incubated for 48 hours and then washed and used for stimulation of human antigen-specific T cells. Results are expressed in pg of IFN-γ per 5×10^5 T cells/ml. DC only=<0.73 pg/ml.

[2] = system: CaSki cervical carcinoma cell line (HPV16 E6 and E7 positive HLA-A2 positive); assay: Lysis of CaSki tumor cells by peptide-specific CTLs; assay type: cell-based, human
Source text: (§1) HPV-specific T cells were generated using infection of dendritic cells (DCs) with Ad-HPV followed by stimulation of the T cells with each agonist and native peptide. In particular, DCs were infected with Ad5 HPV at 20,000 MOI. Infected DCs were used to generate specific CTLs using autologous PBMC. Autologous DCs were used as APCs for three in vitro stimulations (IVS). Autologous peptide-pulsed B cells were used to re-stimulate antigen-specific CTLs for two additional IVS. CTLs were used at IVS5.
(§2) Results are expressed in % specific lysis (SD). Effector-to-target ratio used was 25:1. CTLs were established from a normal HLA-A2 donor. CaSki is a cervical carcinoma cell line (HPV16 E6 and E7 positive HLA-A2 positive). ASPC-1 is a pancreatic cancer cell line (HPV16 E6 and E7 negative HLA-A2 negative).

HLA-A2 molecules = target: T1, HLA-A2 molecules (Homo sapiens, UniProt P04439, D140Y/D185E/D98H/E176V/E277Q/G131W/G231S/I119V/I121R/I166T/I218V/L300P/L318F/N151K/N90K/P208A/P217A/Q86G/Q94H/R138H/R169H/T345S); assay: T2A2 binding of HPV-16 E6/E7 peptides to HLA-A2; parameters: T2A2 Binding: unit not given here
T1 construct: endogenous in cells; host or cells: T2A2 cells (T2 cell line expressing HLA-A2; only the column head names it)

[3] = system: HN-4 head and neck squamous carcinoma cell line (HLA-A2 positive); assay: Lysis of HN-4 cells by peptide-specific CTLs; assay type: cell-based, human
Source text: as §1
(§3) Results are expressed in % specific lysis (SD). Effector-to-target ratio used was 25:1. CTLs were established from a normal HLA-A2 donor. HN-4 and HN-12 cells are head and neck squamous carcinoma cell lines (HLA-A2 positive). ASPC-1 is a pancreatic cancer cell line (HPV16 E6 and E7 negative HLA-A2 negative).

[4] = system: HN-12 head and neck squamous carcinoma cell line (HLA-A2 positive); assay: Lysis of HN-12 cells by peptide-specific CTLs; assay type: cell-based, human
Source text: as §1, §3

[5] = system: ASPC-1 pancreatic cancer cell line (HPV16 E6 and E7 negative HLA-A2 negative); assay: Lysis of ASPC-1 control cells by peptide-specific CTLs; assay type: cell-based, human; conditions: CTLs at IVS5, effector-to-target ratio 25:1
Source text: as §1, §2, §3

[6] = CTLs at IVS5, effector-to-target ratio 25:1
[7] = compared to native counterparts

KLPQLCTEV [E6-A1]
IFN-γ (CTL (T cells); CTL line stimulated by autologous B cells pulsed with corresponding HPV-16 E6 peptide): 699 pg/mL
IFN-γ (CTL (T cells); E6 CTL line, autologous B cells with NO peptide): <15.6 pg/mL
interferon production (in words) (CTL (T cells); T cells stimulated by peptide-pulsed autologous B cells): best interferon production
IFN-γ ([1]; DCs infected with Ad5 [E1,E2b]-HPV (20,000 MOI)): 683 pg of IFN-γ per 5×10^5 T cells/ml
IFN-γ ([1]; DCs infected with Ad5 [E1,E2b]-Null (20,000 MOI)): 1.0 pg of IFN-γ per 5×10^5 T cells/ml
IFN-γ ([1]; DCs only (uninfected)): <0.73 pg of IFN-γ per 5×10^5 T cells/ml
IFN-γ ([1]; No DCs): 0.89 pg of IFN-γ per 5×10^5 T cells/ml
activation of T cells directed against the epitope (in words) ([1]; human DCs infected with Ad-5[E1,E2b^neg]HPV): able to activate
% specific lysis (SD), CaSki (HLA-A2+ HPV E6+ and E7+) [2, 6]: 70.8 (10.7) %
lysis of CaSki cervical carcinoma cells (in words) ([2]; compared to T cells generated with the native epitope counterpart): Enhanced lysis
HLA-A2 binding (in words) (HLA-A2 molecules): strongest
T2A2 Binding (HLA-A2 molecules; binding to HLA-A2): 1,335
% specific lysis (SD), HN-4 [3, 6]: 46.2 (1.1) %
lysis of HN-4 (in words) [3, 7]: more lysis
% specific lysis (SD), HN-12 [4, 6]: 49.4 (3.1) %
lysis of HN-12 (in words) [4, 7]: more lysis
% specific lysis (SD), ASPC-1 (HLA-A2neg HPV E6neg and E7neg) ([5]; Table 4): -0.2 (6.6) %
% specific lysis (SD), ASPC-1 ([5]; Table 5): 0.2 (0.9) %
